In ChEMBL document CHEMBL4020715, “Structure-activity relationship study of vitamin D analogs with oxolane group in their side chain” (Eur J Med Chem, 2017) one finds Activity, EC50 and Efficacy data, which are given here for 5 compounds.

Each structure is given as a SMILES string. The source made the active and inactive calls. No cut-off for these calls is given here.

Assay type in all cases: cell-based
For test [1], the target named is T1, Vitamin D3 receptor A (Danio rerio) (UniProt Q9PTN2).
T1 sequence (whole entry): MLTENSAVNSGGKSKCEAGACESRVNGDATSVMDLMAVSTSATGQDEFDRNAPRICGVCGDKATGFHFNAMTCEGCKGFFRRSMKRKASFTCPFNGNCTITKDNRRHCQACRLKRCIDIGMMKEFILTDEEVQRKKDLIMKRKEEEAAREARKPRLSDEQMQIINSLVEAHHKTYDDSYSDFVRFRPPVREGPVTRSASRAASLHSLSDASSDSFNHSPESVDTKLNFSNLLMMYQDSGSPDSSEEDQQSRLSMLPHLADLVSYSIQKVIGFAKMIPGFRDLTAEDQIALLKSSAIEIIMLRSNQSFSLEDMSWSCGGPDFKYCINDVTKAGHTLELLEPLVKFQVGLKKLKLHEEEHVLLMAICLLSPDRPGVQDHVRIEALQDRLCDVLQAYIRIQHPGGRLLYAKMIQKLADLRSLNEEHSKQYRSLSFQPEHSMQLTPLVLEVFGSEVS
Put plainly: Agonist activity at zebrafish VDR LBD (156 to 453 residues) expressed in HEK293 EBNA cells harboring human CYP24-Tk-Luc plasmid assessed as induction of CYP24a1 gene at 0.1 nM after 18 hrs by dual-luciferase transcriptional reporter gene assay. A general note: Reporter assays use an easily measured gene product as a stand-in for the process of interest.

A further test addresses T2, Vitamin D3 receptor A (Danio rerio, UniProt Q9PTN2).
T2 sequence (Q9PTN2 whole entry): T1 sequence (whole entry)
Put plainly: Agonist activity at zebrafish VDR LBD (156 to 453 residues) expressed in HEK293 EBNA cells harboring human CYP24-Tk-Luc plasmid assessed as induction of CYP24a1 gene after 18 hrs by dual-luciferase transcriptional reporter gene assay.

Test [2] deals with T1, Vitamin D3 receptor A (Danio rerio). In words: Agonist activity at zebrafish VDR LBD (156 to 453 residues) expressed in HEK293 EBNA cells harboring human CYP24-Tk-Luc plasmid assessed as induction of CYP24a1 gene at 1000 nM after 18 hrs by dual-luciferase transcriptional reporter gene assay relative to control.
The target in test [3] is T3, Vitamin D3 receptor (Homo sapiens) (UniProt P11473).
T3 sequence (whole entry): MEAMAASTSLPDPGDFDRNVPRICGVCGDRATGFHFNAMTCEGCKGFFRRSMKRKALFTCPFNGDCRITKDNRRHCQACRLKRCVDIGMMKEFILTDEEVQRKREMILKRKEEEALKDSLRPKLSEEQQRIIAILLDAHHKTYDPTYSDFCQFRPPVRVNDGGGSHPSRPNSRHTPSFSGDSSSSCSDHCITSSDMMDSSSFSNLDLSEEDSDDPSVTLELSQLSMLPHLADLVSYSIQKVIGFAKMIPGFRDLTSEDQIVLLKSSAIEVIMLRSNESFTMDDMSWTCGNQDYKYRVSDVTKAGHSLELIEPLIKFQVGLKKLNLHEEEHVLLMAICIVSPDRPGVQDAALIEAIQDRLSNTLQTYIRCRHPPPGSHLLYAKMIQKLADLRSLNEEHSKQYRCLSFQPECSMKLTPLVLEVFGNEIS
In words: Agonist activity at VP16-fused human full length VDR expressed in COS7 cells assessed as corepressor Gal4 DBD-fused NCOR NRID release at 10 to 1000 nM after 48 hrs by luciferase reporter gene assay based mammalian two-hybrid assay.

Test [4] has as its target T3, Vitamin D3 receptor (Homo sapiens). In words: Agonist activity at VP16-fused human full length VDR expressed in COS7 cells assessed as corepressor Gal4 DBD-fused SMRT NRID release at 10 to 1000 nM after 48 hrs by luciferase reporter gene assay based mammalian two-hybrid assay.
Test [5] deals with T1, Vitamin D3 receptor A (Danio rerio). Put plainly: Agonist activity at zebrafish VDR LBD (156 to 453 residues) expressed in HEK293 EBNA cells harboring human CYP24-Tk-Luc plasmid assessed as induction of CYP24a1 gene at 100 nM after 18 hrs by dual-luciferase transcriptional reporter gene assay.

As to `C=C1/C(=C\C=C2/CCC[C@@]3(C)[C@H]2CC[C@@H]3[C@]2(C)C[C@@H](CC(C)(C)O)CO2)C[C@@H](O)C[C@@H]1O`, the outcome in test [1] was Active.
As for `C=C1/C(=C\C=C2/CCC[C@]3(C)[C@@H]([C@H](C)[C@H]4CC[C@@H](C(C)(C)O)O4)CC[C@@H]23)C[C@@H](O)C[C@H]1O`, the EC50 at Vitamin D3 receptor A was more than 100 nM. Besides, the Efficacy in test [2] is 100%. Further, the outcome in test [3] and in test [4] was Active.
Take `C=C1/C(=C\C=C2/CCC[C@]3(C)[C@@H]([C@H](C)CCCC(C)(C)O)CC[C@@H]23)C[C@@H](O)C[C@H]1O`: the Efficacy in test [2] was found to be 100%.
Turning to `C=C1/C(=C\C=C2/CCC[C@]3(C)[C@@H]([C@H](C)[C@@H]4CC[C@@H](C(C)(C)O)O4)CC[C@@H]23)C[C@@H](O)C[C@H]1O`, the result in test [5], in test [3] and in test [4] was Active. Also, the EC50 at Vitamin D3 receptor A is more than 100 nM. The Efficacy in test [2] was determined as 90%.
As for `C=C1/C(=C\C=C2/CCC[C@]3(C)[C@@H]([C@H](C)[C@@H]4CC[C@H](C(C)(C)O)O4)CC[C@@H]23)C[C@@H](O)C[C@H]1O`, the EC50 on Vitamin D3 receptor A was more than 100 nM. Besides, in test [2], the Efficacy was determined as 47%. The outcome in test [3] and in test [4] was Active.

By EC50 is commonly meant the midpoint of the concentration-response curve.
